The numbers were not newly measured in US20030162781A1, “Vehicle for applying chemical compounds on wood” (priority 2001, published 2003), which cites them from elsewhere.

For the series the following is noted: water as carrier.

For the molecule `O` [Water], the wood penetration result is “scarcely penetrates the wood”.
